Data published in PubChem BioAssay (NCI).
Several values for one entry are separate records, joined by “and”; a condition that tells them apart may be missing. Equal values may be shown once.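 Values below derive from 48-hour exposures of cells grown in 96-well plates, with endpoints linearly interpolated between the two concentrations bracketing the appropriate inhibition level. The concentration for 50% growth inhibition is given as GI50. TGI denotes the concentration required for complete inhibition of growth.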

Columns and labels:
Assay in all cases: NCI-60 cell line screen, 48 h
[1] = test system: SNB-75 CNS
[2] = test system: ACHN renal
[3] = test system: SF-539 CNS
[4] = test system: BT-549 breast
[5] = test system: EKVX NSCLC
[6] = test system: MOLT-4 leukemia
[7] = test system: MDA-MB-435
[8] = test system: OVCAR-3 ovarian
[9] = test system: SK-MEL-5 melanoma
[10] = test system: SK-MEL-28 melanoma

Cc1c(N)nc(C(CC(N)=O)NCC(N)C(N)=O)nc1C(=O)NC(C(=O)NC(C)C(O)C(C)C(=O)NC(C(=O)NCCc1nc(-c2nc(C(=O)NCCCNC(C)c3ccccc3)cs2)cs1)C(C)O)C(OC1OC(CO)C(O)C(O)C1OC1OC(CO)C(O)C(OC(N)=O)C1O)c1cnc[nH]1 (stereo not given)
GI50 [1]: 1.5 µM | TGI [1]: 5.03 µM and 8.77 µM | TGI [2]: 0.189 µM and 1.48 µM | GI50 [3]: 0.0376 µM | TGI [3]: 0.476 µM and 0.681 µM | TGI [4]: 50 µM | GI50 [5]: > 100 µM | TGI [5]: 50 µM and > 100 µM | GI50 [6]: 3.75 µM | TGI [6]: 25.9 µM and > 100 µM | GI50 [7]: 76 µM | TGI [7]: > 100 µM | GI50 [8]: 79.2 µM | TGI [8]: 38.3 µM and > 100 µM | GI50 [9]: 1.51 µM | TGI [9]: 14.9 µM and 18.6 µM | TGI [10]: 50 µM

C=C1C(=O)O[C@H]2[C@H]1CC/C(COC(=O)OC/C1=C/CC[C@@]3(C)O[C@H]3[C@H]3OC(=O)[C@@H](CN(C)C)[C@@H]3CC1)=C\CC[C@@]1(C)O[C@@H]21
GI50 [1]: 4.89 µM | TGI [1]: 25.1 µM | GI50 [2]: 0.457 µM | TGI [2]: 1.69 µM | GI50 [3]: 1.8 µM | TGI [3]: 4.4 µM | GI50 [4]: 1.41 µM | TGI [4]: 2.8 µM | GI50 [5]: 2.17 µM | TGI [5]: 9.39 µM | GI50 [6]: 0.874 µM | TGI [6]: 3.75 µM | GI50 [7]: 1.81 µM | TGI [7]: 4.31 µM | GI50 [8]: 0.501 µM | TGI [8]: 1.7 µM | GI50 [9]: 3.97 µM | TGI [9]: 15.1 µM | GI50 [10]: 1.57 µM | TGI [10]: 4.23 µM

CC(=O)NC(CSC1=C2NC(=O)\C=C/C=C/C=C\C(C)C(O)CC(=O)/C(C)=C\CC(O)/C=C/C(C)C(O)C(C)C=C(C)C(=O)c3c(O)c(C)cc(c3C1=O)C2=O)C(=O)O (stereo not given)
TGI [1]: > 100 µM | TGI [2]: > 100 µM | TGI [3]: > 100 µM | TGI [4]: > 100 µM | TGI [5]: > 100 µM | TGI [6]: > 100 µM | TGI [7]: > 100 µM | TGI [8]: > 100 µM | TGI [9]: > 100 µM | TGI [10]: > 100 µM

C=C1SC(=Nc2ccccc2Cl)N(C(=O)c2sc3ccccc3c2Cl)C12CCCCC2
GI50 [1]: 14 µM | TGI [1]: > 100 µM | GI50 [2]: 4.89 µM | TGI [2]: > 100 µM | GI50 [3]: 34.9 µM | TGI [3]: > 100 µM | GI50 [4]: 70.4 µM | TGI [4]: > 100 µM | GI50 [5]: 3.2 µM | TGI [5]: > 100 µM | GI50 [6]: 4.72 µM | TGI [6]: > 100 µM | GI50 [7]: 29.8 µM | TGI [7]: > 100 µM | GI50 [8]: 6.56 µM | TGI [8]: 93.4 µM | GI50 [9]: 8.2 µM | TGI [9]: > 100 µM | GI50 [10]: > 100 µM | TGI [10]: > 100 µM

C[n+]1c2ccccc2nc2ccccc21
GI50 [1]: 1.38 µM | TGI [1]: 3.1 µM | GI50 [2]: 0.789 µM | TGI [2]: 5.5 µM | GI50 [3]: 1.68 µM | TGI [3]: 4.76 µM | GI50 [4]: 2.26 µM | TGI [4]: 10.8 µM | GI50 [5]: 1.69 µM | TGI [5]: 7.96 µM | GI50 [6]: 4.19 µM | TGI [6]: > 23.5 µM | GI50 [7]: 0.516 µM | TGI [7]: 1.75 µM | GI50 [8]: 0.338 µM | TGI [8]: 1.19 µM | GI50 [9]: 1.03 µM | TGI [9]: 2.52 µM | GI50 [10]: 1.59 µM | TGI [10]: 3.1 µM

CCCCCCCCCCCCCCCCOP(=O)([O-])OCC[N+](C)(C)C
GI50 [1]: 1.43 µM | GI50 [2]: 1.6 µM | TGI [2]: 3.63 µM and 30.8 µM | GI50 [3]: 2.34 µM | TGI [3]: 5.86 µM and 52.9 µM | GI50 [4]: 1.63 µM | TGI [4]: 5.87 µM and 17.8 µM | GI50 [5]: 2.63 µM | TGI [5]: 11.1 µM and 58.6 µM | GI50 [6]: 0.868 µM | GI50 [7]: 2 µM | TGI [7]: 5.23 µM and 39.3 µM | GI50 [8]: 3.74 µM | TGI [8]: 14.8 µM and 48.4 µM | GI50 [9]: 1.92 µM | TGI [9]: 5.35 µM and 52 µM | GI50 [10]: 3.65 µM | TGI [10]: 14.2 µM and 58.5 µM

Nc1nc2cc(CC[C@H]3C[C@@H](n4ccc5c(N)ncnc54)[C@H](O)[C@@H]3O)ccc2cc1Br
GI50 [1]: 4 µM | TGI [1]: 19.1 µM | GI50 [2]: 12.3 µM | TGI [2]: 28.5 µM | GI50 [3]: 13.2 µM | TGI [3]: 27.6 µM | GI50 [4]: 2.41 µM | TGI [4]: 16 µM | GI50 [5]: 4.22 µM | TGI [5]: 22 µM | GI50 [6]: 2.43 µM | TGI [6]: 64.3 µM | GI50 [7]: 4.34 µM | TGI [7]: 18.4 µM | GI50 [8]: 10 µM | TGI [8]: 26.1 µM | GI50 [9]: 0.579 µM | TGI [9]: 2.98 µM | GI50 [10]: 12.2 µM | TGI [10]: 25.4 µM

CCCCCCCC(=O)SCC/C=C/[C@@H]1CC(=O)NCc2nc(cs2)C2=N[C@@](C)(CS2)C(=O)N[C@@H](C(C)C)C(=O)N1
GI50 [1]: 0.0312 µM | TGI [1]: > 69 µM | GI50 [2]: 0.508 µM | TGI [2]: 12 µM | GI50 [3]: 0.0381 µM | TGI [3]: > 57.8 µM | GI50 [4]: 0.0604 µM | TGI [4]: > 66.8 µM | GI50 [5]: 0.0662 µM | TGI [5]: > 100 µM | GI50 [6]: < 0.0112 µM | TGI [6]: > 100 µM | GI50 [7]: < 0.01 µM | TGI [7]: 1.9 µM | GI50 [8]: 0.015 µM | TGI [8]: 0.806 µM | GI50 [9]: 0.0233 µM | TGI [9]: 0.977 µM | GI50 [10]: 0.0185 µM | TGI [10]: 25.8 µM

CCCCCCCC/C=C1\CCC(CN2CCOCC2)C1=O (stereo not given)
TGI [1]: 23.5 µM | TGI [2]: 30.1 µM | TGI [3]: 14.7 µM | TGI [4]: 22.7 µM | TGI [5]: 32.9 µM | TGI [6]: 5.35 µM | TGI [7]: 15.3 µM | TGI [8]: 14.8 µM | TGI [9]: 23.2 µM | TGI [10]: 21.2 µM

O=C(/C=C1\C(=O)N(Cc2ccccc2)c2ccccc21)c1ccc(OCCN2CCCCC2)cc1
GI50 [1]: 11.8 µM | TGI [1]: 24.4 µM | GI50 [2]: 1.63 µM | TGI [2]: 2.98 µM | GI50 [3]: 2.07 µM | TGI [3]: 4.14 µM | GI50 [4]: 2.07 µM | TGI [4]: 4.05 µM | GI50 [5]: 2.36 µM | TGI [5]: 7.48 µM | GI50 [6]: 1.87 µM | TGI [6]: 6.44 µM | GI50 [7]: 2.49 µM | TGI [7]: 9.33 µM | GI50 [8]: 1.75 µM | TGI [8]: 3.2 µM | GI50 [9]: 12.6 µM | TGI [9]: 25.4 µM | GI50 [10]: 2.09 µM | TGI [10]: 4.36 µM
